Reference: ChEMBL document CHEMBL1152288, “Characterization of thien-2-yl 1S,2R-milnacipran analogues as potent norepinephrine/serotonin transporter inhibitors for the treatment of neuropathic pain” (J Med Chem, 2008)
Active and inactive are the calls of the source. No cut-off for these calls is given here.

Assays:
[1] = molecular target: Sodium-dependent serotonin transporter (Homo sapiens, UniProt P31645); experiment: biochemical
Description: Displacement of [alpha,beta-3H(N)]-5-hydroxytryptamine from human cloned SERT expressed in HEK293 cells by microplate scintillation counter

[2] = Drug level in Sprague-Dawley rat brain at 30 mg/kg, po after 1 hr; type: ADME, organism-based; parameters: dose 30 mg/kg, route oral; conditions: read-out: Drug uptake
[3] = Cmax in Sprague-Dawley rat at 30 mg/kg, po; type: ADME, organism-based; parameters: dose 30 mg/kg, route oral; conditions: in vivo
[4] = Partition coefficient, log P of the compound; type: physicochemical; conditions: octanol/water
Transporter = Transporter (Rattus norvegicus, UniProt Q63380); experiment: biochemical
Description: Displacement of Levo[ring-2,5,6-3H]norepinephrine from rat synaptosomal NET expressed in HEK293 cells by microplate scintillation counter

Rattus norvegicus [5] = experiment: Antinociceptive activity in CD rat assessed as reduction in number of hind paw flinching at 60 mg/kg, po by formalin test; type: functional; parameters: scale not given: the % may be the effect or the level left
[6] = Drug level in Sprague-Dawley rat brain at 30 mg/kg, po after 4 hrs; type: ADME, organism-based; parameters: dose 30 mg/kg, route oral; conditions: read-out: Drug uptake
[7] = Tmax in Sprague-Dawley rat at 30 mg/kg, po; type: ADME, organism-based; parameters: dose 30 mg/kg, route oral; conditions: in vivo
[8] = Ratio of drug level in brain to plasma in Sprague-Dawley rat at 30 mg/kg, po after 4 hrs; type: ADME, organism-based; parameters: dose 30 mg/kg, route oral
[9] = molecular target: Sodium-dependent noradrenaline transporter (Homo sapiens, UniProt P23975); experiment: biochemical
Description: Displacement of Levo[ring-2,5,6-3H]norepinephrine from human cloned NET expressed in HEK293 cells by microplate scintillation counter

[10] = molecular target: Sodium-dependent serotonin transporter (Rattus norvegicus, UniProt P31652); type: cell-based, HEK293
[11] = Metabolic stability in rat liver microsomes assessed as systemic clearance at 1 uM after 15 mins by LC-MS/MS analysis; type: ADME, Microsome
in vitro = conditions: human, Caco-2
Description: Apparent permeability from apical to basolateral side of the human Caco-2 cells

[12] = Apparent elimination half life in Sprague-Dawley rat at 30 mg/kg, po; type: ADME, organism-based; parameters: dose 30 mg/kg, route oral; conditions: in vivo, read-out: beta t1/2 (converted)
[13] = Apparent oral clearance in Sprague-Dawley rat at 30 mg/kg, po; type: ADME, organism-based; parameters: dose 30 mg/kg, route oral; conditions: in vivo
[14] = molecular target: Sodium-dependent dopamine transporter (Rattus norvegicus, UniProt P23977); experiment: biochemical
Description: Displacement of 3,4-[ring-2,5,6-3H]dihydroxyphenylethylamine from rat synaptosomal DAT expressed in HEK293 cells by microplate scintillation counter

[15] = molecular target: Sodium-dependent dopamine transporter (Homo sapiens, UniProt Q01959); experiment: biochemical
Description: Displacement of 3,4-[ring-2,5,6-3H]dihydroxyphenylethylamine from human cloned DAT expressed in HEK293 cells by microplate scintillation counter

[16] = Metabolic stability in human liver microsomes assessed as systemic clearance at 1 uM after 15 mins by LC-MS/MS analysis; type: ADME, Microsome
[17] = Ratio of drug level in brain to plasma in Sprague-Dawley rat at 30 mg/kg, po after 1 hr; type: ADME, organism-based; parameters: dose 30 mg/kg, route oral
[18] = AUC in Sprague-Dawley rat at 30 mg/kg, po; type: ADME, organism-based; parameters: dose 30 mg/kg, route oral; conditions: plasma
[19] = Lipophilicity, log D of the compound; type: physicochemical; conditions: octanol/water
[20] = AUC in Sprague-Dawley rat at 5 mg/kg, iv; type: ADME, organism-based; parameters: dose 5 mg/kg, route intravenous; conditions: plasma
[21] = Renal clearance in Sprague-Dawley rat at 5 mg/kg, iv; type: ADME, organism-based, Kidney; parameters: dose 5 mg/kg, route intravenous; conditions: in vivo, read-out: CL_renal
[22] = molecular target: Voltage-gated inwardly rectifying potassium channel KCNH2 (Homo sapiens, UniProt Q12809)
Description: Inhibition of human ERG expressed in HEK293 cells by patch-clamp method

[23] = Volume of distribution in Sprague-Dawley rat at 5 mg/kg, iv; type: ADME, organism-based; parameters: dose 5 mg/kg, route intravenous; conditions: in vivo
[24] = Half life in Sprague-Dawley rat at 5 mg/kg, iv; type: ADME, organism-based; parameters: dose 5 mg/kg, route intravenous; conditions: in vivo
Cytochrome P450 2D6 = Cytochrome P450 2D6 (Homo sapiens, UniProt P10635); experiment: Inhibition of CYP2D6; type: ADME
[25] = Bioavailability in Sprague-Dawley rat at 5 mg/kg, iv; type: ADME, organism-based; conditions: in vivo
[26] = Plasma clearance in Sprague-Dawley rat at 5 mg/kg, iv; type: ADME, organism-based; parameters: dose 5 mg/kg, route intravenous
[27] = Drug excretion in Sprague-Dawley rat urine at 5 mg/kg, iv; type: ADME, organism-based; parameters: dose 5 mg/kg, route intravenous; conditions: read-out: Activity
[28] = Volume of distribution at steady state in Sprague-Dawley rat at 5 mg/kg, iv; type: ADME, organism-based; parameters: dose 5 mg/kg, route intravenous; conditions: in vivo, read-out: Vdss
[29] = Mean residence time in Sprague-Dawley rat at 5 mg/kg, iv; type: ADME, organism-based; parameters: dose 5 mg/kg, route intravenous; conditions: in vivo
Rattus norvegicus [30] = experiment: Antinociceptive activity in CD rat assessed as reduction in number of hind paw flinching at 30 mg/kg, po by formalin test; type: functional, organism-based; parameters: dose 30 mg/kg
Rattus norvegicus [31] = species on record: Rattus norvegicus; experiment: Reversal of pin-prick-induced neuropathic mechanical hyperalgesia in Harlan Sprague-Dawley rat sciatic nerve ligation model; type: functional, organism-based

Sodium-dependent serotonin transporter (Homo sapiens, UniProt P31645), sequence (P31645 whole entry): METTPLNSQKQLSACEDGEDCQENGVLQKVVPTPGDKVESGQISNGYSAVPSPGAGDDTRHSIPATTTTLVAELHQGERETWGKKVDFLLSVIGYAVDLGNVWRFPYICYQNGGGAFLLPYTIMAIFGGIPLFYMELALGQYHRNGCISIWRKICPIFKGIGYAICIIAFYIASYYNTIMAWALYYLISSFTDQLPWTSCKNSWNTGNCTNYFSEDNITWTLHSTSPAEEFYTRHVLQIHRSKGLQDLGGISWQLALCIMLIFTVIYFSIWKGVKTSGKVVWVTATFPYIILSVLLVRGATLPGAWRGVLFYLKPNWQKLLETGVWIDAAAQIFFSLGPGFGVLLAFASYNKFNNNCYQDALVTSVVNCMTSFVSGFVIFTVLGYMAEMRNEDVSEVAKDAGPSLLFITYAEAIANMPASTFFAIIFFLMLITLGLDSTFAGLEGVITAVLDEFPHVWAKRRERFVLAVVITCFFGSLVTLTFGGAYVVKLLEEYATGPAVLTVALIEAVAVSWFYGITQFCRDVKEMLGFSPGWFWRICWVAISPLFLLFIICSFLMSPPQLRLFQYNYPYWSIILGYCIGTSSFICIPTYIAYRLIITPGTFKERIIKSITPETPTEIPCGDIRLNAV
Sodium-dependent serotonin transporter (Rattus norvegicus, UniProt P31652), sequence (P31652 whole entry): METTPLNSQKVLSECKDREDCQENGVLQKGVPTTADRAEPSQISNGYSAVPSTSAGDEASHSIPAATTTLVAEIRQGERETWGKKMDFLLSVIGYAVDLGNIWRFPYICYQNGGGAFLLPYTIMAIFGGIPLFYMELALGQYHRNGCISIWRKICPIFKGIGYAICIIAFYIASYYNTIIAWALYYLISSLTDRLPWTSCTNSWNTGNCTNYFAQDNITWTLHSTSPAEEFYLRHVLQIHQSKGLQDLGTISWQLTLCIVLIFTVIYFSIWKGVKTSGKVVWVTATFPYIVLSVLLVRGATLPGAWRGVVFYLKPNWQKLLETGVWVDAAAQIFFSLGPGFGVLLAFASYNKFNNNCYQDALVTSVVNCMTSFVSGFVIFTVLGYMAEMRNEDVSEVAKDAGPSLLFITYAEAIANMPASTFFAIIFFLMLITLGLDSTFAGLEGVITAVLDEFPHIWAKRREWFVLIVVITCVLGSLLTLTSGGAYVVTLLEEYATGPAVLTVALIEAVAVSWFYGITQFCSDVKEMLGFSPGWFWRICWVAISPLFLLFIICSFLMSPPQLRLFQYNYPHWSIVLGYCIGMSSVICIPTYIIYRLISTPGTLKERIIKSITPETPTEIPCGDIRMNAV
Sodium-dependent dopamine transporter (Homo sapiens, UniProt Q01959), sequence (Q01959 whole entry): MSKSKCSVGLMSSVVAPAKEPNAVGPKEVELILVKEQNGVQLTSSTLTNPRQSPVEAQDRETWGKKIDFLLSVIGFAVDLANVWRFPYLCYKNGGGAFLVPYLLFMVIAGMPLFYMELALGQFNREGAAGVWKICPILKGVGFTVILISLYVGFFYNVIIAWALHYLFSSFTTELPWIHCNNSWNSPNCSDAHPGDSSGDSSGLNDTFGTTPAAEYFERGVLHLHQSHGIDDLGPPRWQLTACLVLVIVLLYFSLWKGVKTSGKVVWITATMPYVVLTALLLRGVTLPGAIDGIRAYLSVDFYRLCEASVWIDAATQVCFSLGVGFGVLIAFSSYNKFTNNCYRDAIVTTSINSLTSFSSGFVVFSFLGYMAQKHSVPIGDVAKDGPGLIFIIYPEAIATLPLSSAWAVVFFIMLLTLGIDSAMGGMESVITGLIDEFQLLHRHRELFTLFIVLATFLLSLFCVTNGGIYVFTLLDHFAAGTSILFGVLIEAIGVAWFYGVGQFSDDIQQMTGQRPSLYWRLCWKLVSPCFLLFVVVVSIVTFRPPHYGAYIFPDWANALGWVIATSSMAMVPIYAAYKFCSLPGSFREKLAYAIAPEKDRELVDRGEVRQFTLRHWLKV
Sodium-dependent dopamine transporter (Rattus norvegicus, UniProt P23977), sequence (P23977 whole entry): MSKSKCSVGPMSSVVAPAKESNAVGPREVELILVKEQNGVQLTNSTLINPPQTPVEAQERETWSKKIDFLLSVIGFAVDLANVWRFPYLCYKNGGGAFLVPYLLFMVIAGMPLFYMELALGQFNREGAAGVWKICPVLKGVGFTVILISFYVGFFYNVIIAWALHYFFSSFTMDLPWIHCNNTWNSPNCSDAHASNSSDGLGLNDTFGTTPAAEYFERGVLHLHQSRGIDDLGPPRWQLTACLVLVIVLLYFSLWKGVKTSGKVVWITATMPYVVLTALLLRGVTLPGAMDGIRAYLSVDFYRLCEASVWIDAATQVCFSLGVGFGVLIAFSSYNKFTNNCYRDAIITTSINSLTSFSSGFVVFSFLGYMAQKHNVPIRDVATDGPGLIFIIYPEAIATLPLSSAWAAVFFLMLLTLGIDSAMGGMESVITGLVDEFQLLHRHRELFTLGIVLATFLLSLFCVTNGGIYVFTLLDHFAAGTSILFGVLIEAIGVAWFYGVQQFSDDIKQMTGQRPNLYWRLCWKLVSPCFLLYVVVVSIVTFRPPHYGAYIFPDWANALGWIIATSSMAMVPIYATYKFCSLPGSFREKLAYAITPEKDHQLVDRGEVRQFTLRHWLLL
Transporter, sequence (Q63380 whole entry): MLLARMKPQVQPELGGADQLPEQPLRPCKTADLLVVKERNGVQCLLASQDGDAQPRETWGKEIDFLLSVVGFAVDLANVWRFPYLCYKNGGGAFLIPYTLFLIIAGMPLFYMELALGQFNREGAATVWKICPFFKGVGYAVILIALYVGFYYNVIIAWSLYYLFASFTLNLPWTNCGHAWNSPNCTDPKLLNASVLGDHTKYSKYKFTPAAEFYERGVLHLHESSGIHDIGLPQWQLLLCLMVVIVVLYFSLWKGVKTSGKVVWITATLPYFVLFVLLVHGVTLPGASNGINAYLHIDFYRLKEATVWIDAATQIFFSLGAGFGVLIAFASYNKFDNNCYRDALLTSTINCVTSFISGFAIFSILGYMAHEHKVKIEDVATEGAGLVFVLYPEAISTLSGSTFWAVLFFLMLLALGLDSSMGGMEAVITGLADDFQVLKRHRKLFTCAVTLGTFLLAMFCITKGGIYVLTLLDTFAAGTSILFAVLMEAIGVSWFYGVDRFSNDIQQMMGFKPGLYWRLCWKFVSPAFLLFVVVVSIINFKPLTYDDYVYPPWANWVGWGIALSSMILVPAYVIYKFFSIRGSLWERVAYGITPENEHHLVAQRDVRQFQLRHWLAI
Sodium-dependent noradrenaline transporter, sequence (P23975 whole entry): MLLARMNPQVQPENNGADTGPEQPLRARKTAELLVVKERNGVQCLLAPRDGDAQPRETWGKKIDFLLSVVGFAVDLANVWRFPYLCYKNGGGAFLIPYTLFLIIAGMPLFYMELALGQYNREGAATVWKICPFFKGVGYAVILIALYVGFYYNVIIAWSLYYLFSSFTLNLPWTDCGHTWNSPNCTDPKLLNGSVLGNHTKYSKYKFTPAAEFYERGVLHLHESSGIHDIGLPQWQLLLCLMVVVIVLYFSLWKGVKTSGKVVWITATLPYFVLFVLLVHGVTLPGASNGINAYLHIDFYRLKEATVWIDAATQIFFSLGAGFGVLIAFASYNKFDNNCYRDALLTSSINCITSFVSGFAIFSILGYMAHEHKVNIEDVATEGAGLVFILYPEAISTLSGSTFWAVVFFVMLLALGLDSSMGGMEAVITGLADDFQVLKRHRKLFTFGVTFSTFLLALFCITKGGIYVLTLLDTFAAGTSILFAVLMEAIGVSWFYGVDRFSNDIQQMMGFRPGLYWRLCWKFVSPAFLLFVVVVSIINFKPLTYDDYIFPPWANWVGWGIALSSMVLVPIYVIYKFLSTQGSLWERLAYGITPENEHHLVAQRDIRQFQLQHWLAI
Voltage-gated inwardly rectifying potassium channel KCNH2, sequence (Q12809 whole entry): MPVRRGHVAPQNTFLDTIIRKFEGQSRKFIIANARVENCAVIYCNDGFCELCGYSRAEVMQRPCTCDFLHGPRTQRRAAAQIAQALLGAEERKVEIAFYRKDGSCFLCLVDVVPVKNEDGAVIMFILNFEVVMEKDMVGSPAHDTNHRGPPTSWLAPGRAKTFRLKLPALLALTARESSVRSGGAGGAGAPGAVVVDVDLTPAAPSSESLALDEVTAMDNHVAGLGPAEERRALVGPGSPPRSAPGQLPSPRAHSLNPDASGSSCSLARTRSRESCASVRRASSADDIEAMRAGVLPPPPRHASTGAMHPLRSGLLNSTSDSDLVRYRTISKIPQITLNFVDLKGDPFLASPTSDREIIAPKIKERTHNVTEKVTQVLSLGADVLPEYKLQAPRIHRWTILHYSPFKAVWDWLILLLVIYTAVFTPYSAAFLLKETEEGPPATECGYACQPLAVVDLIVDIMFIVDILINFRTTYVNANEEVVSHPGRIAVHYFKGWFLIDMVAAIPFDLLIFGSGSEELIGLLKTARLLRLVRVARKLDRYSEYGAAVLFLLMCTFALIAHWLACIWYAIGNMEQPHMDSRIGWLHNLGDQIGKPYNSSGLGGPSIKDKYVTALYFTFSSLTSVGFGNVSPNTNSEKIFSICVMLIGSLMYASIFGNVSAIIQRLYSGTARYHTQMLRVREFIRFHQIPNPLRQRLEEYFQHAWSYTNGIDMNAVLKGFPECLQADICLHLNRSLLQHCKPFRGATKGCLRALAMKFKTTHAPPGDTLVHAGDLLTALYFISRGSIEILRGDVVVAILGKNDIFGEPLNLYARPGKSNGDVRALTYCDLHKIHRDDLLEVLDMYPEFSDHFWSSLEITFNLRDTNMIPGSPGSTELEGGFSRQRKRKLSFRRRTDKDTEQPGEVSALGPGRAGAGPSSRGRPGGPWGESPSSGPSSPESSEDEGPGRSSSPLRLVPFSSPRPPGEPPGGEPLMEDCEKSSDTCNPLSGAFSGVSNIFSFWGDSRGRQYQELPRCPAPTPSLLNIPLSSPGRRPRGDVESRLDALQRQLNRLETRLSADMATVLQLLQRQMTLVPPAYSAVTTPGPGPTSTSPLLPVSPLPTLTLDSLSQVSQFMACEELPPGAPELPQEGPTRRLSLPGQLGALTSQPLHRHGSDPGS
Description for physchem: Dissociation constant, pKa of the compound

| Structure (SMILES) | IC50 [1] | concentration at 1 h [2] | Cmax [3] | logP [4] | IC50 (Transporter) | Activity (Rattus norvegicus [5]) | concentration at 4 h [6] | Tmax [7] | Kp at 4 h [8] | IC50 [9] | IC50 [10] | CLhep predicted at 1 µM [11] | Papp A→B (in vitro) | half-life [12] | CL/F [13] | IC50 [14] | IC50 [15] | CLhep predicted at 1 µM [16] | Kp at 1 h [17] | AUC [18] | also measured |
| --- | --- | --- | --- | --- | --- | --- | --- | --- | --- | --- | --- | --- | --- | --- | --- | --- | --- | --- | --- | --- | --- |
| C#CCN(CC)C(=O)[C@@]1(c2cccs2)C[C@H]1CN | 81 nM | 230 ng/g | 649 ng/mL | 1.6 | 160 nM | 56% | 112 ng/g | 102 min | 0.3 | 19 nM | 160 nM | 44 mL/min/kg | 20.6 ×10⁻⁶ cm/s | 114 min | 156 mL/min/kg | > 10000 nM | > 10000 nM | 2.6 mL/min/kg | 0.3 | 3210 ng·h/mL | logD [19]: 0.1; pKa (physchem): 9.4 |
| C=C(F)CN(CC)C(=O)[C@@]1(c2cccs2)C[C@H]1CN | 97 nM | 70 ng/g | 974 ng/mL | 1.8 | 21 nM | 56% | 31 ng/g | 24 min | 1.1 | 4.4 nM | 160 nM | 54 mL/min/kg | 16.7 ×10⁻⁶ cm/s | 54 min | 334 mL/min/kg | > 10000 nM | > 10000 nM | 2.6 mL/min/kg | 0.73 | 1500 ng·h/mL | AUC [20]: 532 ng·h/mL; CL renal [21]: 59 mL/min/kg; IC50 [22]: > 10000 nM; Vd [23]: 7.5 L/kg; half-life [24]: 36 min; IC50 (Cytochrome P450 2D6): 6000 nM; bioavailability [25]: 47%; clearance [26]: 140 mL/min/kg; dose excreted [27]: 30%; Vd [28]: 5.5 L/kg; MRT [29]: 42 min; logD [19]: 0.2; pKa (physchem): 9.4 |
| C=CCN(CC=C)C(=O)[C@@]1(c2cccs2)C[C@H]1CN | – | – | – | – | – | – | – | – | – | – | – | – | – | – | – | – | – | – | – | – | Activity (Rattus norvegicus [30]): Active; Activity (Rattus norvegicus [31]): Dose-dependent effect |
